According to publication PMC5917001, “Counter-ion effect on antistaphylococcal activity and cytotoxicity of selected antimicrobial peptides” (Amino Acids, 2018):
Where no end group is shown, it is not given here.

Tests used:
[1] = tested on: S. aureus (29): reference (5) and clinical (24) strains; conditions: for Mean value of MIC: mean over 29 S. aureus strains (Table 5); for Mean MIC values: mean over 29 S. aureus strains, as repeated in Table 6; for MIC range among strains: range over all S. aureus strains and the salts of the peptide
Experimental: Microbiological assays were performed using reference and clinical strains of Staphylococcus aureus. Minimal inhibitory concentrations (MIC) were determined by broth microdilution method on 96-well polystyrene plates according to Clinical and Laboratory Standards Institute (CLSI) recommendations [Clinical and Laboratory Standards Institute (CLSI) [2012]]. […] All plates were incubated for 18 h at 37 °C. […] Reference strains of S. aureus: ATCC 6538, ATCC 6538/P, ATCC 9144, ATCC 12598, and ATCC 25923 were obtained from the Polish Collection of Microorganisms (PCM, Polish Academy of Sciences, Wrocław), whereas 24 clinical strains were isolated from the patients of the Clinic of Dermatology, Venereology and Allergology (Medical University of Gdańsk). Nine strains were characterized as methicillin-resistant (MRSA). Preliminary identification and detection was conducted on the ChromID MRSA/ChromID S. aureus biplate (bioMérieux) for the simultaneous detection of S. aureus and methicillin-resistant S. aureus (MRSA). All experiments were conducted at least in triplicate.
To asses an overall activity of peptides, the mean MIC values were calculated.

S. aureus 033N = type: cell-based, Staphylococcus aureus; conditions: clinical strain, broth microdilution, 0.5 × 10^5 CFU/mL, 18 h, 37 °C, at least triplicate
Experimental: (§1) Microbiological assays were performed using reference and clinical strains of Staphylococcus aureus. Minimal inhibitory concentrations (MIC) were determined by broth microdilution method on 96-well polystyrene plates according to Clinical and Laboratory Standards Institute (CLSI) recommendations [Clinical and Laboratory Standards Institute (CLSI) [2012]]. For this purpose, the initial inoculums of 0.5 × 10^5 CFU/mL of bacteria were exposed to a range of concentrations of the peptides (0.5–256 µg/mL). All plates were incubated for 18 h at 37 °C. MIC was taken as the lowest concentration of the compound at which the growth of bacteria was not observed. Reference strains of S. aureus: ATCC 6538, ATCC 6538/P, ATCC 9144, ATCC 12598, and ATCC 25923 were obtained from the Polish Collection of Microorganisms (PCM, Polish Academy of Sciences, Wrocław), whereas 24 clinical strains were isolated from the patients of the Clinic of Dermatology, Venereology and Allergology (Medical University of Gdańsk). Nine strains were characterized as methicillin-resistant (MRSA). Preliminary identification and detection was conducted on the ChromID MRSA/ChromID S. aureus biplate (bioMérieux) for the simultaneous detection of S. aureus and methicillin-resistant S. aureus (MRSA). All experiments were conducted at least in triplicate.

S. aureus 017S (MRSA) = type: cell-based, Staphylococcus aureus; conditions: clinical strain, broth microdilution, 0.5 × 10^5 CFU/mL, 18 h, 37 °C, at least triplicate
Experimental: as §1

S. aureus ATCC 12598 = type: cell-based, Staphylococcus aureus; conditions: ATCC 12598, reference strain; broth microdilution, 0.5 × 10^5 CFU/mL, 18 h, 37 °C, at least triplicate
Experimental: as §1

S. aureus 030N = type: cell-based, Staphylococcus aureus; conditions: clinical strain, broth microdilution, 0.5 × 10^5 CFU/mL, 18 h, 37 °C, at least triplicate
Experimental: as §1

S. aureus 002N = type: cell-based, Staphylococcus aureus; conditions: clinical strain, broth microdilution, 0.5 × 10^5 CFU/mL, 18 h, 37 °C, at least triplicate
Experimental: as §1

S. aureus 017N (MRSA) = type: cell-based, Staphylococcus aureus; conditions: clinical strain, broth microdilution, 0.5 × 10^5 CFU/mL, 18 h, 37 °C, at least triplicate
Experimental: as §1

S. aureus 043SC (MRSA) = type: cell-based, Staphylococcus aureus; conditions: clinical strain, broth microdilution, 0.5 × 10^5 CFU/mL, 18 h, 37 °C, at least triplicate
Experimental: as §1

S. aureus 005S = type: cell-based, Staphylococcus aureus; conditions: clinical strain, broth microdilution, 0.5 × 10^5 CFU/mL, 18 h, 37 °C, at least triplicate
Experimental: as §1

S. aureus ATCC 25923 = type: cell-based, Staphylococcus aureus; conditions: ATCC 25923, reference strain; broth microdilution, 0.5 × 10^5 CFU/mL, 18 h, 37 °C, at least triplicate
Experimental: as §1

S. aureus 051S = type: cell-based, Staphylococcus aureus; conditions: clinical strain, broth microdilution, 0.5 × 10^5 CFU/mL, 18 h, 37 °C, at least triplicate
Experimental: as §1

S. aureus K46N = type: cell-based, Staphylococcus aureus; conditions: clinical strain, broth microdilution, 0.5 × 10^5 CFU/mL, 18 h, 37 °C, at least triplicate
Experimental: as §1

S. aureus 002S = type: cell-based, Staphylococcus aureus; conditions: clinical strain, broth microdilution, 0.5 × 10^5 CFU/mL, 18 h, 37 °C, at least triplicate
Experimental: as §1

S. aureus ATCC 6538/P = type: cell-based, Staphylococcus aureus; conditions: reference strain, broth microdilution, 0.5 × 10^5 CFU/mL, 18 h, 37 °C, at least triplicate
Experimental: as §1

S. aureus ATCC 9144 = type: cell-based, Staphylococcus aureus; conditions: ATCC 9144, reference strain; broth microdilution, 0.5 × 10^5 CFU/mL, 18 h, 37 °C, at least triplicate
Experimental: as §1

S. aureus 013S = type: cell-based, Staphylococcus aureus; conditions: clinical strain, broth microdilution, 0.5 × 10^5 CFU/mL, 18 h, 37 °C, at least triplicate
Experimental: as §1

S. aureus 051N (MRSA) = type: cell-based, Staphylococcus aureus; conditions: clinical strain, broth microdilution, 0.5 × 10^5 CFU/mL, 18 h, 37 °C, at least triplicate
Experimental: as §1

S. aureus 060S = type: cell-based, Staphylococcus aureus; conditions: clinical strain, broth microdilution, 0.5 × 10^5 CFU/mL, 18 h, 37 °C, at least triplicate
Experimental: as §1

S. aureus 001S (MRSA) = type: cell-based, Staphylococcus aureus; conditions: clinical strain, broth microdilution, 0.5 × 10^5 CFU/mL, 18 h, 37 °C, at least triplicate
Experimental: as §1

S. aureus 048S = type: cell-based, Staphylococcus aureus; conditions: clinical strain, broth microdilution, 0.5 × 10^5 CFU/mL, 18 h, 37 °C, at least triplicate
Experimental: as §1

S. aureus K19N = type: cell-based, Staphylococcus aureus; conditions: clinical strain, broth microdilution, 0.5 × 10^5 CFU/mL, 18 h, 37 °C, at least triplicate
Experimental: as §1

S. aureus K50S = type: cell-based, Staphylococcus aureus; conditions: clinical strain, broth microdilution, 0.5 × 10^5 CFU/mL, 18 h, 37 °C, at least triplicate
Experimental: as §1

S. aureus 015N (MRSA) = type: cell-based, Staphylococcus aureus; conditions: clinical strain, broth microdilution, 0.5 × 10^5 CFU/mL, 18 h, 37 °C, at least triplicate
Experimental: as §1

S. aureus 001N (MRSA) = type: cell-based, Staphylococcus aureus; conditions: clinical strain, broth microdilution, 0.5 × 10^5 CFU/mL, 18 h, 37 °C, at least triplicate
Experimental: as §1

S. aureus 045N = type: cell-based, Staphylococcus aureus; conditions: clinical strain, broth microdilution, 0.5 × 10^5 CFU/mL, 18 h, 37 °C, at least triplicate
Experimental: as §1

S. aureus 004N (MRSA) = type: cell-based, Staphylococcus aureus; conditions: clinical strain, broth microdilution, 0.5 × 10^5 CFU/mL, 18 h, 37 °C, at least triplicate
Experimental: as §1

S. aureus ATCC 6538 = type: cell-based, Staphylococcus aureus; conditions: ATCC 6538, reference strain; broth microdilution, 0.5 × 10^5 CFU/mL, 18 h, 37 °C, at least triplicate
Experimental: as §1

S. aureus 024N (MRSA) = type: cell-based, Staphylococcus aureus; conditions: clinical strain, broth microdilution, 0.5 × 10^5 CFU/mL, 18 h, 37 °C, at least triplicate
Experimental: as §1

S. aureus 039N = type: cell-based, Staphylococcus aureus; conditions: clinical strain, broth microdilution, 0.5 × 10^5 CFU/mL, 18 h, 37 °C, at least triplicate
Experimental: as §1

S. aureus 053N = type: cell-based, Staphylococcus aureus; conditions: clinical strain, broth microdilution, 0.5 × 10^5 CFU/mL, 18 h, 37 °C, at least triplicate
Experimental: as §1

Substance	Mean value of MIC [1]	Mean MIC values [1]	MIC (S. aureus 033N)	MIC (S. aureus 017S (MRSA))	MIC (S. aureus ATCC 12598)	MIC (S. aureus 030N)	MIC (S. aureus 002N)	MIC (S. aureus 017N (MRSA))	MIC (S. aureus 043SC (MRSA))	MIC (S. aureus 005S)	MIC (S. aureus ATCC 25923)	MIC (S. aureus 051S)	MIC (S. aureus K46N)	MIC (S. aureus 002S)	MIC (S. aureus ATCC 6538/P)	MIC (S. aureus ATCC 9144)	MIC (S. aureus 013S)	MIC (S. aureus 051N (MRSA))	MIC (S. aureus 060S)	MIC (S. aureus 001S (MRSA))	also measured
KWKLFKKIGAVLKVL-NH2 [CAMEL Cl^−]	≤ 2.0 µg/mL	≤ 2.0 µg/mL	4 µg/mL	2 µg/mL	1 µg/mL	4 µg/mL	≤ (≤ alone stands for MIC ≤ 0.25 µg/mL)	2 µg/mL	4 µg/mL	≤ (≤ alone stands for MIC ≤ 0.25 µg/mL)	2 µg/mL	2 µg/mL	4 µg/mL	1 µg/mL	1 µg/mL	1 µg/mL	≤ (≤ alone stands for MIC ≤ 0.25 µg/mL)	2 µg/mL	1 µg/mL	2 µg/mL	MIC (S. aureus 048S): 4 µg/mL; MIC (S. aureus K19N): 1 µg/mL; MIC (S. aureus K50S): 1 µg/mL; MIC (S. aureus 015N (MRSA)): 2 µg/mL; MIC (S. aureus 001N (MRSA)): 2 µg/mL; MIC (S. aureus 045N): 4 µg/mL; MIC (S. aureus 004N (MRSA)): 2 µg/mL; MIC (S. aureus ATCC 6538): ≤ (≤ alone stands for MIC ≤ 0.25 µg/mL); MIC (S. aureus 024N (MRSA)): ≤ (≤ alone stands for MIC ≤ 0.25 µg/mL); MIC (S. aureus 039N): 4 µg/mL; MIC (S. aureus 053N): 4 µg/mL
FLPLIGRVLSGIL-NH2 [Temporin A TFA^−]	5.9 µg/mL	–	–	–	–	–	–	–	–	–	–	–	–	–	–	–	–	–	–	–	–
GLFDVIKKVASVIGGL-NH2 [Citropin 1.1 AcO^−]	10.0 µg/mL	10.0 µg/mL	8 µg/mL	8 µg/mL	8 µg/mL	16 µg/mL	16 µg/mL	4 µg/mL	8 µg/mL	2 µg/mL	16 µg/mL	4 µg/mL	16 µg/mL	16 µg/mL	8 µg/mL	16 µg/mL	2 µg/mL	8 µg/mL	1 µg/mL	16 µg/mL	MIC (S. aureus 048S): 16 µg/mL; MIC (S. aureus K19N): 16 µg/mL; MIC (S. aureus K50S): 1 µg/mL; MIC (S. aureus 015N (MRSA)): 8 µg/mL; MIC (S. aureus 001N (MRSA)): 16 µg/mL; MIC (S. aureus 045N): 16 µg/mL; MIC (S. aureus 004N (MRSA)): 8 µg/mL; MIC (S. aureus ATCC 6538): 4 µg/mL; MIC (S. aureus 024N (MRSA)): 2 µg/mL; MIC (S. aureus 039N): 8 µg/mL; MIC (S. aureus 053N): 16 µg/mL
GIGKFLKKAKKFGKAFVKILKK-NH2 [Pexiganan]	–	–	–	–	–	–	–	–	–	–	–	–	–	–	–	–	–	–	–	–	MIC range among strains [1]: 1 to 16 µg/mL
KWKLFKKIGAVLKVL-NH2 [CAMEL]	below 3.5 µg/mL	–	–	–	–	–	–	–	–	–	–	–	–	–	–	–	–	–	–	–	MIC range among strains [1]: ≤ 0.25 to 8 µg/mL
GIGKFLKKAKKFGKAFVKILKK-NH2 [Pexiganan Cl^−]	7.4 µg/mL	–	–	–	–	–	–	–	–	–	–	–	–	–	–	–	–	–	–	–	–
